From patent US12018024B2, “Compounds and compositions for the treatment of cryptosporidiosis” (Novartis AG, priority 2020, dated 2024)

Legend:
[1] = target: C. parvum PI(4)K (Cryptosporidium parvum, UniProt Q5CVD3); test: CpPI(4)K enzymatic assay (Transcreener ADP2 FP); assay type: biochemical
Description: Baculovirus expression and purification of C. parvum phosphatidylinositol 4-kinase: The full-length coding sequence of C. parvum PI(4)K (cgd8_4500, 1114 amino acids) was codon-optimized for baculovirus expression, synthesized and cloned into pFastBac-HTb (Invitrogen 10584-027) in frame with the amino-terminal polyhistidine tag using the BamHI and HindIII restriction sites. Recombinant pFastBacHTb-CpPI(4)K bacmid clones were generated by site-specific transposition in E. coli DH10Bac (Invitrogen 10361-012). The bacmid sequence was confirmed by direct DNA sequencing to confirm a lack of mutations across the whole gene. The subsequent steps for bacmid isolation, transfection and selection of the recombinant viruses were performed according to the manufacturer's protocol (Bac-to-Bac system #10359, Invitrogen).
SF9 cells, cultured in […] serum-free medium, were transfected with recombinant baculovirus at 1/200 (v/v) and incubated at 27° C. for 72 h. The pellets were collected after centrifugation and re-suspended in cell lysis buffer (20 mM Tris-HCl, pH 7.5, 300 mM NaCl, 1 mM DTT, 20 mM imidazole, 0.01% Triton X-100 and 1× complete protease inhibitor cocktail without EDTA (Roche Diagnostics 04693116001)). The cell suspension was lysed by sonication and the clarified supernatant was loaded onto a 1 ml HisTrap affinity column (GE Healthcare) pre-equilibrated with buffer A (20 mM Tris-HCl, pH 7.5, 300 mM NaCl, 1 mM DTT, 20 mM Imidazole, and 1× complete protease inhibitor cocktail without EDTA). The column was washed with buffer B (buffer A containing 45 mM imidazole) and the bound protein of interest was eluted with buffer C (buffer A with 90 mM imidazole). The fractions containing CpPI(4)K were pooled, concentrated using Amicon Ultra-15 and purified by a gel-filtration column (Hi-Load 26/60 Superdex 200, GE Healthcare) equilibrated with 20 mM Tris, pH 7.5, 300 mM NaCl, 1 mM DTT and 1× protease inhibitor cocktail without EDTA. The concentrations of the purified protein (Mw 132.39 kda) was determined by using the protein molar extinction coefficient (ε280 nm=133,810 M^−1 cm^−1). Aliquots were flash frozen in liquid nitrogen and immediately stored at −80° C.
PI(4)K enzymatic Assay The CpPI(4)K enzymatic assay was performed as described earlier with a some modifications (McNamara et al., 2013). Briefly, L-α-phosphatidylinositol (Avanti Polar Lipid 840046), dissolved in 3% n-octylglucoside (Roche Diagnostics 10634425001), was used as the lipid substrate for the PI(4)K activity assay. CpPI(4)K was assayed using Transcreener ADP2 FP detection kit (BellBrook 3010) in a black, solid 384-well plate (Corning 3575). The final assay volume was 10 μl and contained 3 nM of the respective CpPI(4)K construct in 10 mM Tris, pH 7.5, 1 mM DTT, 3 μM ATP, 5 mM Mn2+, 0.05% Triton X-100 and 10 μM phosphatidylinositol/octylglucoside. The enzyme reaction was performed for 50 minutes at room temperature and was stopped by adding 10 μl of detection mix containing 1× stop buffer (50 mM HEPES, pH7.5, 400 mM NaCl, 20 mM EDTA, and 0.02% Brij-35), 2 nM AMP Alexa Fluor 633 tracer, and 20 μg ml^−1 ADP antibody. Fluorescence polarization measurements were performed on the Infinite M1000 plate reader (Tecan) with λex=635 nm and λem=680 nm (20-nm bandwidth). IC50 values were calculated using Graphpad Prism software.

[2] = test system: Cryptosporidium parvum; test: Cytopathic effect (CPE) based assay, C. parvum-infected HCT-8 cells; assay type: cell-based; conditions: HCT-8, 48 h, read-out: (b) C.p.* CPE EC50 (μM)
Protocol: Human ileocecal colorectal adenocarcinoma cells (HCT-8 [HRT-18] ATCC, CCL-34) were maintained in T-175 flasks (Corning, 431080) in complete growth medium (RPMI-1640 medium (Gibco, 11875) supplemented with 10% heat-inactivated horse serum (Gibco, 26050), 1× MEM non-essential amino acids (Gibco, 11140), 10 mM HEPES (Gibco, 15630), 100 units/mL penicillin, and 100 units/mL streptomycin) at 37° C. and 5% CO2 in a humidified incubator. Cultures were passaged twice weekly using 10 mL of 1× Phosphate-Buffered Saline (PBS) without Ca^2+ and Mg^2+ (Gibco, 20012) for washing and 3-5 mL per T-175 flask of TrypLE Express Enzyme (Gibco, 12604) for dissociation of adherent cells.
Cryptosporidium parvum oocysts purchased from the Sterling Laboratory, University of Arizona (Iowa isolate) were purified from infected calf feces using discontinuous sucrose and cesium chloride centrifugation gradients and stored in PBS solution containing 0.01% Tween 20, 100 units/mL penicillin and 100 units/mL gentamicin.
Excystaion and infection: Excystation and infection protocols were developed following established methods with some modifications (Gut & Nelson, 1999, Upton et al., 1995, Bessoff et al., 2013). Briefly, oocysts were primed in 1 mL of 10 mM hydrochloric acid in 1× Hank's Balanced Salt Solution (HBSS) (Gibco, 14025) for 10 minutes with agitation at 1000 rpm, 37° C. on an Eppendorf thermomixer, then washed twice with 1 mL of room temperature non-acidic 1× HBSS by centrifugation at 13,000 rpm for 3 minutes at 25° C. Primed oocysts were further excysted at a concentration of 1×10^6 oocysts/μL in parasite infection medium consisting of a pre-warmed and pre-gassed 1:1 formulation of Leibovitz's L-15 medium (Gibco, 11415) and UltraCULTURE medium (Lonza, 12-725F) supplemented with 2 mM sodium taurocholate (Sigma, 86339-1), 10% heat-inactivated horse serum, and 200 μM L-ascorbic acid (Sigma, 95210) at 25° C. for 10 minutes. HCT-8 monolayer cells were infected with excysted cryptosporidium at a specified multiplicity of infection (MOI). All dilutions for subsequent assays were performed in parasite infection medium without sodium taurocholate. Pre-excysted oocysts were enumerated microscopically using a C-Chip disposable hemocytometer (NanoEnTek, DHC-N01).
Compound and assay plate preparation: Compound powders were dissolved in neat DMSO (Fisher, D4121) to 10 mM and stored at 4° C. prior to dilution into source plates. Dilutions were carried out using a Microlab STAR liquid handler (Hamilton) to obtain compound source plates containing the ten-point or eight-point three fold dilutions starting from 10 mM in duplicates. Source plates were stored at 4° C. prior to spotting into assay plates. Before administration, all compound source plates were equilibrated to room temperature. A specified volume of compounds from source plate were spotted to assay plate using an Echo Acoustic liquid handler (LABCYTE, 550) so that the final DMSO concentration was less than 0.5%. Each assay plate a specified number of DMSO-treated negative control wells and a well-studied potent active compound at 100 nM as positive control. As a quality control, all positive and negative-control wells were used to calculate a Z′-value and signal to noise ratio (S:N) for each plate.
Cryptosporidium spp are obligate-intracellular parasites that infect intestinal epithelial cells and the host cell is killed upon parasite egress. […] The loss of epithelial cells is due to both rapid parasite invasion/multiplication/egress and also pro-inflammatory immune response (Adams et al., 1994, Griffiths et al., 1994). We have observed a consistent cytopathic effect (CPE) in HCT-8 cells with C. spp infection the loss of viability of the host cells using CellTiter-Glo reagent.
Confluent HCT-8 cells in T-175 flasks were directly infected with excysted oocysts at an MOI (host to parasite) of 1:2 for C. parvum and 1:4 for C. hominis. […]

[3] = target: H.s. PI(4)K (Homo sapiens, UniProt Q9UBF8); test: H.s. PI(4)K IC50; assay type: biochemical; conditions: read-out: (d) H.s.* PI(4)K IC50
H.s. PI(4)K, sequence (Q9UBF8 2-816 limits assumed): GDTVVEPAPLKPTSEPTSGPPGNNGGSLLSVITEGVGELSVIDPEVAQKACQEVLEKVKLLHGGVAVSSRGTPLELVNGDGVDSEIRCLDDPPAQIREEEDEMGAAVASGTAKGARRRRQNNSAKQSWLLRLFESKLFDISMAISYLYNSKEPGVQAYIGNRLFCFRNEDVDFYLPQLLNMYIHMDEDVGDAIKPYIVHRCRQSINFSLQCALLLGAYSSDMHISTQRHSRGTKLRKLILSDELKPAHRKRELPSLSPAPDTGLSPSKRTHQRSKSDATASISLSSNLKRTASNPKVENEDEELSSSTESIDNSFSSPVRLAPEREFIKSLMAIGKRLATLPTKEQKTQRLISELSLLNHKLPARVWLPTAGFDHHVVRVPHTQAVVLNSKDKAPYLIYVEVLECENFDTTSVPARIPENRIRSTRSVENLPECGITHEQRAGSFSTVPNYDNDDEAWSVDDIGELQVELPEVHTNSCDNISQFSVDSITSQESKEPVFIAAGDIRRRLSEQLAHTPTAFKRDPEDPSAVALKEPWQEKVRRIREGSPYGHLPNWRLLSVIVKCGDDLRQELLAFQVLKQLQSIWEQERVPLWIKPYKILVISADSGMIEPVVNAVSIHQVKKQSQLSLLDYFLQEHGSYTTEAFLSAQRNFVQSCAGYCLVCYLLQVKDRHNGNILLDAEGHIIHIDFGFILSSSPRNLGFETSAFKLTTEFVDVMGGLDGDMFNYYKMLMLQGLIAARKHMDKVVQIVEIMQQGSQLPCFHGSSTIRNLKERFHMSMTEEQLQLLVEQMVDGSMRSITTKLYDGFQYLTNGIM

C. parvum PI(4)K, sequence (Q5CVD3 entry or part of it): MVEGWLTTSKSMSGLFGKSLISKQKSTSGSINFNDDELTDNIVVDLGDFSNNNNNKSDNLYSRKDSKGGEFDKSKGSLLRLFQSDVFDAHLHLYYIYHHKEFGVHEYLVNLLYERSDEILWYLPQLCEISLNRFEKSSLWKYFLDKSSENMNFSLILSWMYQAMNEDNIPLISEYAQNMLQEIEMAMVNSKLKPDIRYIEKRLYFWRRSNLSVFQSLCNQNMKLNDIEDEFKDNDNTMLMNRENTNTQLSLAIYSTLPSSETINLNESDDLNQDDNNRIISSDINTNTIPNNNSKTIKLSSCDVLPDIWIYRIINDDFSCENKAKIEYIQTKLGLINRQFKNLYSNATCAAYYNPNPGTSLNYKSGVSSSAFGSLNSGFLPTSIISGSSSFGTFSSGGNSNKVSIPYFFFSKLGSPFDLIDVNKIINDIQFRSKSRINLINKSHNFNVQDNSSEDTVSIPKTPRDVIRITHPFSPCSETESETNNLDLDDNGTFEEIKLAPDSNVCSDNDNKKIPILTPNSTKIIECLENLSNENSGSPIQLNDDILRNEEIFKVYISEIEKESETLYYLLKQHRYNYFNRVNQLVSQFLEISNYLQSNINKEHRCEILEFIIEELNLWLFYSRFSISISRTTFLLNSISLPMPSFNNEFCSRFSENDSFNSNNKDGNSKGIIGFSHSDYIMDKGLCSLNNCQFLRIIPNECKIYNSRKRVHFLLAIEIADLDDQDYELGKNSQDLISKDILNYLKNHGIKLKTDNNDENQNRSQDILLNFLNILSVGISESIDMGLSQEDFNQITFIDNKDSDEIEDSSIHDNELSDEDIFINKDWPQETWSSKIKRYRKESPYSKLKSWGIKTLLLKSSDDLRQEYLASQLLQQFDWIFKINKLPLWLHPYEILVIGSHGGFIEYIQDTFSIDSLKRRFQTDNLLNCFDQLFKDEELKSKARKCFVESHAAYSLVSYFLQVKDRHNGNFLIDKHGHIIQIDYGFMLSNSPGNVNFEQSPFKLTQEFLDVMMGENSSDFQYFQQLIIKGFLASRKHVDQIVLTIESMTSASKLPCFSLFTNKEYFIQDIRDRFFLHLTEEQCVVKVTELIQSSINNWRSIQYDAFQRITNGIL

Row | Structure (SMILES) | IC50 [1] [nM] | EC50 [2] [µM] | IC50 [3] [nM]
1 | CCOC(=O)c1cc(N(C)C(=O)c2ccn3ncc(-c4ccc(C(N)=O)cc4)c3c2)ccc1Cl [Example 1.09, Ethyl 5-(3-(4-carbamoylphenyl)-N-methylpyrazolo[1,5-a]pyridine-5-carboxamido)-2-chlorobenzoate] | < 100 | 0.1 to 1 | –
2 | CSCCOC(=O)c1cc(N(C)C(=O)c2ccn3ncc(-c4ccc(C(N)=O)cc4)c3c2)ccc1Cl [Example 1.04, 2-(Methylthio)ethyl 5-(3-(4-carbamoylphenyl)-N-methylpyrazolo[1,5-a]pyridine-5-carboxamido)-2-chlorobenzoate] | < 100 | > 1 | –
3 | CN(C(=O)c1ccn2ncc(-c3ccc(C(N)=O)cc3)c2c1)c1ccc(Cl)c(C(=O)OCC2CCCO2)c1 (racemic) [Example 1.15, rac-(Tetrahydrofuran-2-yl)methyl 5-(3-(4-carbamoylphenyl)-N-methylpyrazolo[1,5-a]pyridine-5-carboxamido)-2-chlorobenzoate] | < 100 | 0.1 to 1 | –
4 | COC(=O)COC(=O)c1cc(N(C)C(=O)c2ccn3ncc(-c4ccc(C(N)=O)cc4)c3c2)ccc1Cl [Example 1.06, 2-Methoxy-2-oxoethyl 5-(3-(4-carbamoylphenyl)-N-methylpyrazolo[1,5-a]pyridine-5-carboxamido)-2-chlorobenzoate] | < 100 | > 1 | –
5 | CNC(=O)c1ccc(-c2cnn3ccc(C(=O)Nc4ccc(Cl)c(C(=O)OC)c4)cc23)cc1 [Example 1.24, Methyl 2-chloro-5-(3-(4-(methylcarbamoyl)phenyl)pyrazolo[1,5-a]pyridine-5-carboxamido)benzoate] | > 1000 | > 1 | > 1000
6 | CN(C(=O)c1ccn2ncc(-c3ccc(C(N)=O)cc3)c2c1)c1ccc(Cl)c(C(=O)OCC(F)(F)F)c1 [Example 1.10, 2,2,2-Trifluoroethyl 5-(3-(4-carbamoylphenyl)-N-methylpyrazolo[1,5-a]pyridine-5-carboxamido)-2-chlorobenzoate] | < 100 | > 1 | –
7 | CC(C)COC(=O)c1cc(N(C)C(=O)c2ccn3ncc(-c4ccc(C(N)=O)cc4)c3c2)ccc1Cl [Example 1.05, Isobutyl 5-(3-(4-carbamoylphenyl)-N-methylpyrazolo[1,5-a]pyridine-5-carboxamido)-2-chlorobenzoate] | < 100 | 0.1 to 1 | –
8 | CN(C)C(=O)COC(=O)c1cc(N(C)C(=O)c2ccn3ncc(-c4ccc(C(N)=O)cc4)c3c2)ccc1Cl [Example 1.12, 2-(Dimethylamino)-2-oxoethyl 5-(3-(4-carbamoylphenyl)-N-methylpyrazolo[1,5-a]pyridine-5-carboxamido)-2-chlorobenzoate] | < 100 | 0.1 to 1 | –
9 | COCCOC(=O)c1cc(N(C)C(=O)c2ccn3ncc(-c4ccc(C(N)=O)cc4)c3c2)ccc1Cl [Example 1.11, 2-Methoxyethyl 5-(3-(4-carbamoylphenyl)-N-methylpyrazolo[1,5-a]pyridine-5-carboxamido)-2-chlorobenzoate] | < 100 | 0.1 to 1 | –
10 | CNC(=O)c1ccc(-c2cnn3ccc(C(=O)N(C)c4ccc(OC(F)(F)F)c(C(=O)OC)c4)cc23)cc1 [Example 1.26, Methyl 5-(N-methyl-3-(4-(methylcarbamoyl)phenyl)pyrazolo[1,5-a]pyridine-5-carboxamido)-2-(trifluoromethoxy)benzoate] | < 100 | 0.1 to 1 | –
11 | CN(C(=O)c1ccn2ncc(-c3ccc(C(N)=O)cc3)c2c1)c1ccc(Cl)c(C(=O)OCc2cncs2)c1 [Example 1.07, Thiazol-5-ylmethyl 5-(3-(4-carbamoylphenyl)-N-methylpyrazolo[1,5-a]pyridine-5-carboxamido)-2-chlorobenzoate] | < 100 | 0.1 to 1 | –
12 | CC(C)OC(=O)c1cc(N(C)C(=O)c2ccn3ncc(-c4ccc(C(N)=O)cc4)c3c2)ccc1Cl [Example 1.13, Isopropyl 5-(3-(4-carbamoylphenyl)-N-methylpyrazolo[1,5-a]pyridine-5-carboxamido)-2-chlorobenzoate] | < 100 | 0.1 to 1 | –
13 | CN(C(=O)c1ccn2ncc(-c3ccc(C(N)=O)cc3)c2c1)c1ccc(Cl)c(C(=O)OC(C)(C)C)c1 [Example 1.02, tert-Butyl 5-(3-(4-carbamoylphenyl)-N-methylpyrazolo[1,5-a]pyridine-5-carboxamido)-2-chlorobenzoate] | < 100 | 0.1 to 1 | –
14 | CNC(=O)c1ccc(-c2cnn3ccc(C(=O)N(C)c4ccc(Cl)c(C(=O)OC(C)(C)C)c4)cc23)cc1 [Example 1.17, t-Butyl 2-chloro-5-(N-methyl-3-(4-(methylcarbamoyl)phenyl)pyrazolo[1,5-a]pyrdine-5-carboxamido)benzoate] | < 100 | < 0.1 | –
